In ChEMBL document CHEMBL1201862, “PubChem BioAssay data set” (2004):
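96-well plates; 48 h exposure; 5 concentrations. Endpoints by linear interpolation between flanking doses. Not reached: highest tested concentration assigned. Abbreviation: GI50, concentration required for 50% inhibition of growth.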 Calls of active or inactive are those of the source. Rule as the data show it: active = GI50 up to about 1.1 µM and inactive = higher.

Assays:
Assay in all cases: NCI tumour cell line growth inhibition, 48 h
A498 = test system: A498
Hs-578T = test system: Hs-578T
MDA-N = test system: MDA-N
HT-29 = test system: HT-29
MDA-MB-435 = test system: MDA-MB-435
MOLT-4 = test system: MOLT-4
M14 = test system: M14
IGROV-1 = test system: IGROV-1
TK-10 = test system: TK-10
HCC 2998 = test system: HCC 2998
SN12C = test system: SN12C
NCI-H226 = test system: NCI-H226
NCI-H23 = test system: NCI-H23
OVCAR-5 = test system: OVCAR-5
BT-549 = test system: BT-549
MCF7 = test system: MCF7
SK-MEL-28 = test system: SK-MEL-28
PC-3 = test system: PC-3
HCT-15 = test system: HCT-15
MDA-MB-231 = test system: MDA-MB-231
SW-620 = test system: SW-620
NCI/ADR-RES = test system: NCI/ADR-RES
HL-60 = test system: HL-60
A549 = test system: A549
EKVX = test system: EKVX
CAKI-1 = test system: CAKI-1
OVCAR-4 = test system: OVCAR-4
SK-OV-3 = test system: SK-OV-3
RPMI-8226 = test system: RPMI-8226
DU-145 = test system: DU-145
LOX IMVI = test system: LOX IMVI
HOP-92 = test system: HOP-92
OVCAR-8 = test system: OVCAR-8
HCT-116 = test system: HCT-116
NCI-H522 = test system: NCI-H522
SNB-19 = test system: SNB-19
T47D = test system: T47D
KM12 = test system: KM12
ACHN = test system: ACHN
OVCAR-3 = test system: OVCAR-3
UACC-257 = test system: UACC-257
UACC-62 = test system: UACC-62
SF-295 = test system: SF-295
CCRF-CEM = test system: CCRF-CEM
K562 = test system: K562
SK-MEL-5 = test system: SK-MEL-5
786-0 = test system: 786-0
SK-MEL-2 = test system: SK-MEL-2
NCI-H460 = test system: NCI-H460
U-251 = test system: U-251
HOP-62 = test system: HOP-62
RXF 393 = test system: RXF 393
SF-268 = test system: SF-268
SNB-75 = test system: SNB-75
Malme-3M = test system: Malme-3M
COLO 205 = test system: COLO 205
SR = test system: SR
SF-539 = test system: SF-539
UO-31 = test system: UO-31

With CCCc1nnc2sc(COc3cc(Cl)c(OCc4nn5c(CCC)nnc5s4)cc3Cl)nn12 the GI50 (A498) was 37.8 µM (inactive), the GI50 (Hs-578T) was 32 µM (inactive) and the GI50 (MDA-N) was 37.6 µM (inactive). The GI50 (HT-29) was 53 µM (inactive), the GI50 (MDA-MB-435) was 35.3 µM (inactive) and the GI50 (MOLT-4) was 0.4 µM (active). For the same molecule, the GI50 (M14) was 44.7 µM (inactive), the GI50 (IGROV-1) was 25.2 µM (inactive) and the GI50 (TK-10) was 52 µM (inactive). The GI50 (HCC 2998) was 77.8 µM (inactive), the GI50 (SN12C) was 57 µM (inactive) and the GI50 (NCI-H226) was > 100 µM (inactive). The GI50 (NCI-H23) was 0.748 µM (active), the GI50 (OVCAR-5) was > 100 µM (inactive) and the GI50 (BT-549) was 29.2 µM (inactive). For the same molecule, the GI50 (MCF7) was 23.6 µM (inactive), the GI50 (SK-MEL-28) was 5.66 µM (inactive) and the GI50 (PC-3) was > 100 µM (inactive). For the same molecule, the GI50 (HCT-15) was 0.904 µM, the GI50 (MDA-MB-231) was 47.1 µM (inactive) and the GI50 (SW-620) was > 100 µM (inactive). The GI50 (NCI/ADR-RES) was 5.9 µM (inactive), the GI50 (HL-60) was 25.6 µM (inactive) and the GI50 (A549) was 35.2 µM (inactive). For the same molecule, the GI50 (EKVX) was 22.6 µM (inactive), the GI50 (CAKI-1) was 38.5 µM (inactive) and the GI50 (OVCAR-4) was 22.5 µM (inactive). The GI50 (SK-OV-3) was 24.5 µM (inactive), the GI50 (RPMI-8226) was 0.0885 µM (active) and the GI50 (DU-145) was 47 µM (inactive). The GI50 (LOX IMVI) was 37.1 µM (inactive), the GI50 (HOP-92) was 22 µM (inactive) and the GI50 (OVCAR-8) was 27.4 µM (inactive). For the same molecule, the GI50 (HCT-116) was 46 µM (inactive), the GI50 (NCI-H522) was 27.3 µM (inactive) and the GI50 (SNB-19) was 31.5 µM (inactive). The GI50 (T47D) was 15.2 µM (inactive), the GI50 (KM12) was 70.1 µM (inactive) and the GI50 (ACHN) was 25.4 µM (inactive). The GI50 (OVCAR-3) was 24.8 µM (inactive), the GI50 (UACC-257) was 34.1 µM (inactive) and the GI50 (UACC-62) was 24.2 µM (inactive). The GI50 (SF-295) was 28.6 µM (inactive), the GI50 (CCRF-CEM) was 15.6 µM (inactive) and the GI50 (K562) was 0.596 µM (active). The GI50 (SK-MEL-5) was 12.3 µM (inactive), the GI50 (786-0) was 35.7 µM (inactive) and the GI50 (SK-MEL-2) was > 100 µM (inactive). For the same molecule, the GI50 (NCI-H460) was 42.8 µM (inactive), the GI50 (U-251) was 37.2 µM (inactive) and the GI50 (HOP-62) was 38.4 µM (inactive). The GI50 (RXF 393) was 31.6 µM (inactive), the GI50 (SF-268) was 21.7 µM (inactive) and the GI50 (SNB-75) was 21.7 µM (inactive). For the same molecule, the GI50 (Malme-3M) was 25.9 µM (inactive), the GI50 (COLO 205) was 50.5 µM (inactive) and the GI50 (SR) was 0.046 µM (active). The GI50 (SF-539) was 47.8 µM (inactive).

For O=C(Nc1ccccc1)c1cc(S(=O)(=O)N2CCNC2=O)c(S)cc1Cl, the GI50 (A498) was > 100 µM (inactive), the GI50 (Hs-578T) was > 100 µM (inactive) and the GI50 (MDA-N) was > 100 µM (inactive). For the same molecule, the GI50 (HT-29) was > 100 µM (inactive), the GI50 (MDA-MB-435) was > 100 µM (inactive) and the GI50 (MOLT-4) was > 100 µM (inactive). For the same molecule, the GI50 (M14) was > 100 µM (inactive), the GI50 (IGROV-1) was > 100 µM (inactive) and the GI50 (TK-10) was > 100 µM (inactive). The GI50 (HCC 2998) was > 100 µM (inactive), the GI50 (SN12C) was > 100 µM (inactive) and the GI50 (NCI-H23) was > 100 µM (inactive). For the same molecule, the GI50 (OVCAR-5) was > 100 µM (inactive), the GI50 (BT-549) was > 100 µM (inactive) and the GI50 (MCF7) was > 100 µM (inactive). The GI50 (SK-MEL-28) was > 100 µM (inactive), the GI50 (PC-3) was > 100 µM (inactive) and the GI50 (HCT-15) was greater than 100 µM. The GI50 (MDA-MB-231) was > 100 µM (inactive), the GI50 (SW-620) was > 100 µM (inactive) and the GI50 (NCI/ADR-RES) was > 100 µM (inactive). For the same molecule, the GI50 (HL-60) was > 100 µM (inactive), the GI50 (A549) was > 100 µM (inactive) and the GI50 (EKVX) was > 100 µM (inactive). For the same molecule, the GI50 (CAKI-1) was 36.6 µM (inactive), the GI50 (OVCAR-4) was > 100 µM (inactive) and the GI50 (SK-OV-3) was > 100 µM (inactive). The GI50 (RPMI-8226) was > 100 µM (inactive), the GI50 (DU-145) was > 100 µM (inactive) and the GI50 (LOX IMVI) was > 100 µM (inactive). The GI50 (HOP-92) was > 100 µM (inactive), the GI50 (OVCAR-8) was > 100 µM (inactive) and the GI50 (HCT-116) was > 100 µM (inactive). The GI50 (NCI-H522) was 23.2 µM (inactive), the GI50 (SNB-19) was > 100 µM (inactive) and the GI50 (T47D) was > 100 µM (inactive). The GI50 (KM12) was > 100 µM (inactive), the GI50 (UO-31) was > 100 µM (inactive) and the GI50 (ACHN) was > 100 µM (inactive). For the same molecule, the GI50 (OVCAR-3) was > 100 µM (inactive), the GI50 (UACC-257) was > 100 µM (inactive) and the GI50 (UACC-62) was > 100 µM (inactive). The GI50 (SF-295) was > 100 µM (inactive), the GI50 (CCRF-CEM) was > 100 µM (inactive) and the GI50 (K562) was > 100 µM (inactive). The GI50 (SK-MEL-5) was > 100 µM (inactive), the GI50 (786-0) was > 100 µM (inactive) and the GI50 (SK-MEL-2) was > 100 µM (inactive). For the same molecule, the GI50 (NCI-H460) was > 100 µM (inactive), the GI50 (U-251) was > 100 µM (inactive) and the GI50 (HOP-62) was > 100 µM (inactive). For the same molecule, the GI50 (RXF 393) was > 100 µM (inactive), the GI50 (SF-268) was > 100 µM (inactive) and the GI50 (SNB-75) was > 100 µM (inactive). For the same molecule, the GI50 (COLO 205) was > 100 µM (inactive), the GI50 (SR) was > 100 µM (inactive) and the GI50 (SF-539) was > 100 µM (inactive).

In the case of CSc1nc2c(c(N3CCOCC3)n1)C(O)n1c(nc3ccccc31)S2 (stereo unspecified), the GI50 (A498) is reported as 97.1 µM (inactive), the GI50 (Hs-578T) is reported as 23.7 µM (inactive) and the GI50 (MDA-N) is reported as > 100 µM (inactive). For the same molecule, the GI50 (HT-29) was > 100 µM (inactive), the GI50 (MDA-MB-435) was 95.3 µM (inactive) and the GI50 (MOLT-4) was > 100 µM (inactive). For the same molecule, the GI50 (M14) was > 100 µM (inactive), the GI50 (IGROV-1) was > 100 µM (inactive) and the GI50 (TK-10) was 47.5 µM (inactive). The GI50 (HCC 2998) was > 100 µM (inactive), the GI50 (SN12C) was 77.8 µM (inactive) and the GI50 (NCI-H23) was 67.8 µM (inactive). For the same molecule, the GI50 (OVCAR-5) was > 100 µM (inactive), the GI50 (BT-549) was 30.5 µM (inactive) and the GI50 (MCF7) was 23 µM (inactive). For the same molecule, the GI50 (PC-3) was 37.2 µM (inactive), the GI50 (HCT-15) was 63 µM and the GI50 (MDA-MB-231) was 50.2 µM (inactive). For the same molecule, the GI50 (SW-620) was 32.1 µM (inactive), the GI50 (NCI/ADR-RES) was 22.6 µM (inactive) and the GI50 (HL-60) was > 100 µM (inactive). For the same molecule, the GI50 (A549) was 29.6 µM (inactive), the GI50 (EKVX) was > 100 µM (inactive) and the GI50 (CAKI-1) was > 100 µM (inactive). For the same molecule, the GI50 (OVCAR-4) was 41 µM (inactive), the GI50 (SK-OV-3) was 96.2 µM (inactive) and the GI50 (RPMI-8226) was 4.72 µM (inactive). For the same molecule, the GI50 (DU-145) was > 100 µM (inactive), the GI50 (LOX IMVI) was > 100 µM (inactive) and the GI50 (HOP-92) was 72.3 µM (inactive). The GI50 (OVCAR-8) was 31.1 µM (inactive), the GI50 (HCT-116) was > 100 µM (inactive) and the GI50 (NCI-H522) was 24.8 µM (inactive). For the same molecule, the GI50 (SNB-19) was 17.5 µM (inactive), the GI50 (T47D) was 25.9 µM (inactive) and the GI50 (KM12) was 53.6 µM (inactive). The GI50 (UO-31) was 3.93 µM (inactive), the GI50 (ACHN) was 36.6 µM (inactive) and the GI50 (OVCAR-3) was 69.2 µM (inactive). The GI50 (UACC-257) was > 100 µM (inactive), the GI50 (UACC-62) was > 100 µM (inactive) and the GI50 (SF-295) was 33.5 µM (inactive). For the same molecule, the GI50 (CCRF-CEM) was 21.1 µM (inactive), the GI50 (SK-MEL-5) was 3.23 µM (inactive) and the GI50 (786-0) was 44.3 µM (inactive). For the same molecule, the GI50 (SK-MEL-2) was 29.7 µM (inactive), the GI50 (NCI-H460) was 13.6 µM (inactive) and the GI50 (U-251) was 20.8 µM (inactive). The GI50 (HOP-62) was 40.6 µM (inactive), the GI50 (RXF 393) was 80.4 µM (inactive) and the GI50 (SF-268) was 26.2 µM (inactive). The GI50 (SNB-75) was 30.5 µM (inactive), the GI50 (Malme-3M) was 52.2 µM (inactive) and the GI50 (COLO 205) was 0.055 µM (active). For the same molecule, the GI50 (SR) was 51.2 µM (inactive) and the GI50 (SF-539) was 3.8 µM (inactive).
